Laboratory results reported in US11834453B2, “Substituted pyrimido[5,4-d]pyrimidines as HER2 inhibitors” (Array BioPharma Inc., priority 2020, dated 2023).
Like-named read-outs stand apart in the source and are kept apart here.

What was measured:
MDR1 (P-gp) = MDR1 (P-gp) (Homo sapiens (Human), UniProt P08183); test: MDR1 transfected LLC-PK1 permeability/efflux, Assay 6; conditions: pig
EGFR = EGFR (Homo sapiens (Human), UniProt P00533); test: ErbB enzyme assay (CisBio HTRF KinEASE-TK), Assay 3; assay type: biochemical
Method in brief: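 Using a time-resolved FRET read-out, tyrosine phosphorylation of 250 nM biotin substrate at 1 mM ATP (pH 7.4, 10 mM MgCl2, 2% DMSO, 22 °C, 30 min) was quantified against DMSO and pre-quenched controls; IC50 taken at 50% of control.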

[1] = biological target: ErbB2 with Exon 20 YVMA insertion (HER2-YVMA) (Homo sapiens (Human), UniProt P04626, INS775YVMA); test: Cellular phosphorylation assay, constitutive ErbB2 phosphorylation (Y1196) in engineered NIH 3T3 cells, Assay 4; assay type: cell-based
Method in brief: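 In-cell Western in NIH 3T3 cells carrying ErbB2 exon 20 YVMA insertion, with no ligand stimulation. One hour compound exposure at 37 °C before fixation and anti-pY1196 plus GAPDH staining with dual-wavelength fluorescence. IC50 derived after GAPDH normalization.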

[2] = biological target: ErbB2 insYVMA (HER2-YVMA, SEQ ID NO: 2) (Homo sapiens, UniProt P04626, INS775YVMA/P1170A); test: biochemical; conditions: ErbB2 insYVMA enzyme assay
ErbB2 WT = ErbB2 WT (Homo sapiens (Human), UniProt P04626); test: ErbB enzyme assay (CisBio HTRF KinEASE-TK), Assay 2; assay type: biochemical
Method in brief: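 Readout is HTRF KinEASE-TK, using Sa-XL665 and cryptate antibody for 1 h at 22 °C, as percent of control between DMSO-only (100) and pre-quenched (0) reactions. The kinase reaction runs 30 min at 22 °C with 1 mM ATP and 250 nM biotinylated TK substrate, in HEPES pH 7.4 with MgCl2 and 2% DMSO.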

EGFR wild type (EGFR WT) = EGFR wild type (EGFR WT) (Homo sapiens (Human), UniProt P00533); test: Cellular phosphorylation assay, EGF-stimulated EGFR phosphorylation in engineered NIH 3T3 cells, Phospho-EGFR DuoSet IC ELISA, Assay 5; assay type: cell-based
Method in brief: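 Phospho-EGFR ELISA on lysates of engineered NIH 3T3 EGFR WT cells, IC50 derived from concentration curves. Cells plated at 20,000/well overnight, given compound dilutions 1 h at 37 °C, then rEGF 100 ng/ml for a further 10 min before lysis.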

BCRP = BCRP (Homo sapiens (Human), UniProt Q9UNQ0); test: BCRP transfected MDCKII canine Mdr1 knockout permeability/efflux, Assay 9; conditions: dog, Assay 9 Pe Ratio, efflux ratio Papp(B-A)/Papp(A-B), BCRP transfected MDCKII canine Mdr1 knockout
[3] = LLC-PK1, Assay 6 Pe Ratio, efflux ratio Papp(B-A)/Papp(A-B), MDR1 transfected LLC-PK1

Chain of ErbB2 WT (P04626 23-1255): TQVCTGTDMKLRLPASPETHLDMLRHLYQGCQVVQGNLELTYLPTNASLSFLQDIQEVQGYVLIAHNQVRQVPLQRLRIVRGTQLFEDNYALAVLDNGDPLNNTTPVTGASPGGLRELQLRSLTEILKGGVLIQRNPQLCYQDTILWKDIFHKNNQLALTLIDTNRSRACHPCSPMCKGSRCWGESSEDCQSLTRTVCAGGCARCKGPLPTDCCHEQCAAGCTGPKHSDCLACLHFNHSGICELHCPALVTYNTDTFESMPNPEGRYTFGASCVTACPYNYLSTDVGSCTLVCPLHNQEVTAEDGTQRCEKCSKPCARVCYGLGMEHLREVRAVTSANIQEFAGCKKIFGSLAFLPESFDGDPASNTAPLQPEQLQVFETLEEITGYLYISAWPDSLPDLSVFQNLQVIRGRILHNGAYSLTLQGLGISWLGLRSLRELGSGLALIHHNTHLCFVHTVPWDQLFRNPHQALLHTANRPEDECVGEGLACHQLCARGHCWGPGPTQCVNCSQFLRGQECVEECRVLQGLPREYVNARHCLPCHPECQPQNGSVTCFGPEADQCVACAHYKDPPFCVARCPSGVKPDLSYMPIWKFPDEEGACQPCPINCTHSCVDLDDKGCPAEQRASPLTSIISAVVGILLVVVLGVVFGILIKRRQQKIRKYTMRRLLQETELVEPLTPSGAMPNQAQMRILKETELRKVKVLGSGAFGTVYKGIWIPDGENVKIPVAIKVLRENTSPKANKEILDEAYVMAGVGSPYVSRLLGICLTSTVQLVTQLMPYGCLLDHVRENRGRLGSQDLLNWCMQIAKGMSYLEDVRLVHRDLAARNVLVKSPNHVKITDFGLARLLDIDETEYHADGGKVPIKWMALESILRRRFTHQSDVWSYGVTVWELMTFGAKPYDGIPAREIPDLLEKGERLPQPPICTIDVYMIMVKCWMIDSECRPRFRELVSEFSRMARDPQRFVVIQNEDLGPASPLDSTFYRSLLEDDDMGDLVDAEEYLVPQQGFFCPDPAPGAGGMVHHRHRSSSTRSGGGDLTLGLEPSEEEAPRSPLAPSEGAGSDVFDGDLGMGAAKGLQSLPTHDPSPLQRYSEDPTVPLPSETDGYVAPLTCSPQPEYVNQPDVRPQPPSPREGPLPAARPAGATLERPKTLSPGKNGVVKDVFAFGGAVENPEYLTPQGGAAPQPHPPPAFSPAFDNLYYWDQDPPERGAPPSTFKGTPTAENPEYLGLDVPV
Chain of BCRP (Q9UNQ0 whole entry): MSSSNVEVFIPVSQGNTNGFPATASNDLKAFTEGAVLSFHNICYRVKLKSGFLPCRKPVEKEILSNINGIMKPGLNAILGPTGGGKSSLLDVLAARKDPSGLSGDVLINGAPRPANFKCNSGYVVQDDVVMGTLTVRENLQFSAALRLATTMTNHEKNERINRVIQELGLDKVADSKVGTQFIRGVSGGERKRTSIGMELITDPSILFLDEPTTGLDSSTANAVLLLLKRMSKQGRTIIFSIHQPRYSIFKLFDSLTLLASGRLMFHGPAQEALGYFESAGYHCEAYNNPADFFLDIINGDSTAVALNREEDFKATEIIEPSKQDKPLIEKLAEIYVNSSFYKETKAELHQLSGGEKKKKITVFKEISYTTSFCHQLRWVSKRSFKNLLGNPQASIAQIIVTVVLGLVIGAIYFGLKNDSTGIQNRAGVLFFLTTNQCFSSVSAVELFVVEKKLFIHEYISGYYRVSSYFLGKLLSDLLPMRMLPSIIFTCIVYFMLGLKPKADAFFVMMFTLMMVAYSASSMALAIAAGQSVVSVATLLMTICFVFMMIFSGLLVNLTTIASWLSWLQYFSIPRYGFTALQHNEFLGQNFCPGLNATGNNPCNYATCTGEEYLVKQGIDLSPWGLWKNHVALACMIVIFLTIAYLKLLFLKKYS
Chain of MDR1 (P-gp) (P08183 whole entry): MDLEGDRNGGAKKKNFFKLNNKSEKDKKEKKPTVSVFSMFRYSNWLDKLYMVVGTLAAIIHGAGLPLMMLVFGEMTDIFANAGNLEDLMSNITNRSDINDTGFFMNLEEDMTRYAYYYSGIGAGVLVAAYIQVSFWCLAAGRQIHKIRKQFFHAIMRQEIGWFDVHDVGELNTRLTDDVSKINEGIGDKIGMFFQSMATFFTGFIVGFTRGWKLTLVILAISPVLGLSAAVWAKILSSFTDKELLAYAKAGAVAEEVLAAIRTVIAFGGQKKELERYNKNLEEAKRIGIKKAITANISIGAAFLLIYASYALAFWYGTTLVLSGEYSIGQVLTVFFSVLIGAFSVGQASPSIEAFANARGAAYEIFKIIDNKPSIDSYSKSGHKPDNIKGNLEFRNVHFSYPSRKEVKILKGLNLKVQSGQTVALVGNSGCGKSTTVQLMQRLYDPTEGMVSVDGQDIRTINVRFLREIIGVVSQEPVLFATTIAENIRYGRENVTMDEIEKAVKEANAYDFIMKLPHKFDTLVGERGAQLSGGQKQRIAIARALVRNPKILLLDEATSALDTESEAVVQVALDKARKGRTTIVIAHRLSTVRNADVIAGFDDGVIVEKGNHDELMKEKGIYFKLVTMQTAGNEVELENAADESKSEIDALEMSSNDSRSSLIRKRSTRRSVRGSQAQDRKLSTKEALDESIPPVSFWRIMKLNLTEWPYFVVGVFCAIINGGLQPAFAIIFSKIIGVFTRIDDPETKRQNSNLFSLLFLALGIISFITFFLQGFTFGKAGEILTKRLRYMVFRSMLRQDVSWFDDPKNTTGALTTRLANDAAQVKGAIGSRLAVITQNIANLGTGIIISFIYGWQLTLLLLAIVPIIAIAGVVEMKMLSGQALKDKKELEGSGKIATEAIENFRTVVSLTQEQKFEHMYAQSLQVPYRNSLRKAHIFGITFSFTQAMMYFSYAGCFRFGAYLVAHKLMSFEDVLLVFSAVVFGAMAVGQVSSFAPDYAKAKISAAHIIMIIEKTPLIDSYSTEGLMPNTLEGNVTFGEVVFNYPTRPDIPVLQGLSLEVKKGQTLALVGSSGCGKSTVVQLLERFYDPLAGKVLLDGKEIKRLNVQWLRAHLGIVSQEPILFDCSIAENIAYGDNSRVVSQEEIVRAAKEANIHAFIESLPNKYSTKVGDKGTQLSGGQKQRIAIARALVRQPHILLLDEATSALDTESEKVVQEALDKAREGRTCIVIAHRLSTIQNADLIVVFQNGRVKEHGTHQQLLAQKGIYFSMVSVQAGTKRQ
Chain of ErbB2 insYVMA (HER2-YVMA, SEQ ID NO: 2) (P04626 with tags, fused parts or gaps INS775YVMA/P1170A limits assumed): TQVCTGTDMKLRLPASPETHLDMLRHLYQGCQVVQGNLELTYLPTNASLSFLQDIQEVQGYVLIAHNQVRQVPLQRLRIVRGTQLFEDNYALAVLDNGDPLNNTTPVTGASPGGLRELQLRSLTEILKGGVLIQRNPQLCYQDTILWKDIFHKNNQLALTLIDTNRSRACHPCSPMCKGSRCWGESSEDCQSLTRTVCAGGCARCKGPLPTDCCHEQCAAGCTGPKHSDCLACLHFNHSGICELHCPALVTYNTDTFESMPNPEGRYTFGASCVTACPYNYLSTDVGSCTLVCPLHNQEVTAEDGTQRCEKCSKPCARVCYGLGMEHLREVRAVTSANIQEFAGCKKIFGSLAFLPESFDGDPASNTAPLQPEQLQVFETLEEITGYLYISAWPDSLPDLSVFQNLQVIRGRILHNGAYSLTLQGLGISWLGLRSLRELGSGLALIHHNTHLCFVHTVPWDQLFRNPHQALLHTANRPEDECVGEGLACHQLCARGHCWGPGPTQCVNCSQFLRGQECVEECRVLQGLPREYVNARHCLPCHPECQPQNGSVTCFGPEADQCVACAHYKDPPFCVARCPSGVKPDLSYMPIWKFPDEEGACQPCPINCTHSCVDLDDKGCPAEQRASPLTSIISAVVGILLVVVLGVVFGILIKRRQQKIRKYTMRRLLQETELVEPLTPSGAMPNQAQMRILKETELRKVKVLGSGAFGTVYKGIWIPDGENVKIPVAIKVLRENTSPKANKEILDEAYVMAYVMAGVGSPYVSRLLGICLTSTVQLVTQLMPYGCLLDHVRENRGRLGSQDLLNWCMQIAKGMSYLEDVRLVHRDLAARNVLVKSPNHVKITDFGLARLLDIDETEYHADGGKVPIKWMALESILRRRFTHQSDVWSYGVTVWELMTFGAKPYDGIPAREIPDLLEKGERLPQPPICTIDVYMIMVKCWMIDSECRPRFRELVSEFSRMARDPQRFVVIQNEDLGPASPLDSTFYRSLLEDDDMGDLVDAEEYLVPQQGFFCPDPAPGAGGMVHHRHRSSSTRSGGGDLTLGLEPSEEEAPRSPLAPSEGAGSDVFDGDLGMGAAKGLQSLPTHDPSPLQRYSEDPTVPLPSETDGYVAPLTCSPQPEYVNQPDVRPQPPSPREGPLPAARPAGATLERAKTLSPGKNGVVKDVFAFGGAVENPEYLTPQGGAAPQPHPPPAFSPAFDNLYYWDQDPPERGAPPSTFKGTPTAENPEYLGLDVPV

| SMILES | efflux ratio at 2 h, 1 μM (MDR1 (P-gp); LLC-PK1) | IC50 (EGFR) | IC50 [1] | IC50 ([2]; read-out: Assay 1 IC50) | IC50 (ErbB2 WT) | efflux ratio at 2 h, 1 μM (MDR1 (P-gp); [3]) | IC50 ([2]; Assay 1 IC50 (nM)) | IC50 (EGFR wild type (EGFR WT)) | efflux ratio at 2 h, 1 μM (BCRP) |
| --- | --- | --- | --- | --- | --- | --- | --- | --- | --- |
| Cc1cc(Nc2ncnc3cnc(N4CCCC5(COC5)C4)nc23)ccc1Oc1ccc2c(c1)ncn2C [Example 45, N-(3-methyl-4-((1-methyl-1H-benzo[d]imidazol-5-yl)oxy)phenyl)-6-(2-oxa-6-azaspiro[3.5]nonan-6-yl)pyrimido[5,4-d]pyrimidin-4-amine] | 2.2 | 4740 nM | 56.2 nM | 31 nM | 25 nM |  |  |  |  |
| Cc1cc(Nc2ncnc3cnc(N4CC[C@@H](C)C4=O)nc23)ccc1Oc1ccc2c(c1)ncn2C [Example 51, (R)-3-methyl-1-(8-((3-methyl-4-((1-methyl-1H-benzo[d]imidazol-5-yl)oxy)phenyl)amino)pyrimido[5,4-d]pyrimidin-2-yl)pyrrolidin-2-one] |  | ≥ 10000 nM | 52.1 nM | 41.1 nM | 79.3 nM | 4.4 |  |  |  |
| Cc1cc(Nc2ncnc3cnc(N4CC5COC(C5)C4)nc23)ccc1Oc1ccc2c(c1)ncn2C (stereo not shown) [Example 67, 6-(6-oxa-3-azabicyclo[3.2.1]octan-3-yl)-N-(3-methyl-4-((1-methyl-1H-benzo[d]imidazol-5-yl)oxy)phenyl)pyrimido[5,4-d]pyrimidin-4-amine] |  | ≥ 10000 nM | 86.7 nM | 15.1 nM | 34.3 nM | 2.1 |  |  |  |
| Cc1cc(Nc2ncnc3cnc(N4CC5CC(C4)O5)nc23)ccc1Oc1ccc2c(c1)ncn2C.O=C(O)C(F)(F)F [Example 69, 6-(6-oxa-3-azabicyclo[3.1.1]heptan-3-yl)-N-(3-methyl-4-((1-methyl-1H-benzo[d]imidazol-5-yl)oxy)phenyl)pyrimido[5,4-d]pyrimidin-4-amine 2,2,2-trifluoroacetate] | 2.6 | ≥ 10000 nM | 35.8 nM |  | 161 nM |  | 27.6 nM |  |  |
| CON1CCN(c2ncc3ncnc(Nc4ccc(Oc5ccc6c(c5)ncn6C)c(Cl)c4)c3n2)CC1.O=C(O)C(F)(F)F [Example 141, N-(3-chloro-4-((1-methyl-1H-benzo[d]imidazol-5-yl)oxy)phenyl)-6-(4-methoxypiperazin-1-yl)pyrimido[5,4-d]pyrimidin-4-amine 2,2,2-trifluoroacetate] |  | 4440 nM | 17.1 nM |  | 25.9 nM |  | 23.2 nM | ≥ 5000 nM | 1.4 |
| Cc1cc(Nc2ncnc3cnc(N(C)CC4(O)CCC4)nc23)ccc1Oc1ccc2c(c1)ncn2C [Example 164, 1-((methyl(8-((3-methyl-4-((1-methyl-1H-benzo[d]imidazol-5-yl)oxy)phenyl)amino)pyrimido[5,4-d]pyrimidin-2-yl)amino)methyl)cyclobutan-1-ol] |  | ≥ 10000 nM | 9 nM | 28 nM | 52.3 nM |  |  | ≥ 5000 nM | 2.2 |
| Cc1cc(Nc2ncnc3cnc(N4CCCO4)nc23)ccc1Oc1ccc2c(c1)ncn2C [Example 178, 6-(isoxazolidin-2-yl)-N-(3-methyl-4-((1-methyl-1H-benzo[d]imidazol-5-yl)oxy)phenyl)pyrimido[5,4-d]pyrimidin-4-amine] |  | ≥ 10000 nM | 9.9 nM | 20.9 nM |  | 3.7 |  | ≥ 5000 nM |  |
| Cc1cc(Nc2ncnc3cnc(N(C)C[C@@H](C)O)nc23)ccc1Oc1ccc2c(c1)ncn2C [Example 189, (R)-1-(methyl(8-((3-methyl-4-((1-methyl-1H-benzo[d]imidazol-5-yl)oxy)phenyl)amino)pyrimido[5,4-d]pyrimidin-2-yl)amino)propan-2-ol] |  | 6460 nM | 13.9 nM | 12.7 nM |  | 4.2 |  | ≥ 5000 nM |  |
| Cc1cc(Nc2ncnc3cnc(N4CC(C)(O)CO4)nc23)ccc1Oc1ccc2c(c1)ncn2C (stereo not shown) [Example 191, 4-methyl-2-(8-((3-methyl-4-((1-methyl-1H-benzo[d]imidazol-5-yl)oxy)phenyl)amino)pyrimido[5,4-d]pyrimidin-2-yl)isoxazolidin-4-ol] |  | ≥ 10000 nM | 36.4 nM | 33 nM |  | 36.5 |  | ≥ 5000 nM |  |
| Cc1cc(Nc2ncnc3cnc(N(C)CC(C)(C)O)nc23)ccc1Oc1cc(F)c2c(c1)ncn2C [Example 203, 1-((8-((4-((7-fluoro-1-methyl-1H-benzo[d]imidazol-5-yl)oxy)-3-methylphenyl)amino)pyrimido[5,4-d]pyrimidin-2-yl)(methyl)amino)-2-methylpropan-2-ol] |  | 4580 nM | 8.3 nM | 20.3 nM | 65.4 nM |  |  | ≥ 5000 nM | 1.9 |
| Cc1cc(Nc2ncnc3cnc(N(C)CCO)nc23)ccc1Oc1ccc2c(c1)ncn2C [Example 208, 2-(methyl(8-((3-methyl-4-((1-methyl-1H-benzo[d]imidazol-5-yl)oxy)phenyl)amino)pyrimido[5,4-d]pyrimidin-2-yl)amino)ethan-1-ol] |  | 3550 nM | 6 nM | 17.3 nM |  | 11.2 |  | ≥ 5000 nM |  |
| COCCOC1CN(c2ncc3ncnc(Nc4ccc(Oc5ccc6c(c5)ncn6C)c(C)c4)c3n2)C1 [Example 240] |  | ≥ 10000 nM | 66.5 nM | 41.3 nM | 77.7 nM | 2.9 |  |  |  |
| CCON1CCN(c2ncc3ncnc(Nc4ccc(Oc5ccc6c(c5)ncn6C)c(C)c4)c3n2)CC1 [Example 483] |  | ≥ 10000 nM | 58.6 nM | 76.5 nM | 262 nM |  |  | ≥ 5000 nM |  |
| Cn1cnc2cc(Oc3ccc(Nc4ncnc5cnc(N6CCN(CC(F)F)CC6)nc45)cc3Cl)ccc21 [Example 484] |  | ≥ 10000 nM | 22.7 nM | 34.4 nM | 124 nM |  |  | ≥ 5000 nM |  |
| CON1CCN(c2ncc3ncnc(Nc4cc(C)c(Oc5ccc6c(c5)ncn6C)cc4F)c3n2)CC1 [Example 486] |  | ≥ 10000 nM | 133 nM | 29.6 nM | 138 nM |  |  | ≥ 5000 nM |  |
| Cc1cc(Nc2ncnc3cnc(N4CC5(C4)CC(O)(C(F)(F)F)C5)nc23)ccc1Oc1ccc2c(c1)ncn2C [Example 487] |  | ≥ 10000 nM | 49.1 nM | 62.1 nM | 45.7 nM |  |  | ≥ 5000 nM |  |
| Cc1cc(Nc2ncnc3cnc(N4C[C@@H](O)C5(CC5)C4)nc23)c(Cl)cc1Oc1ccc2c(c1)ncn2C [Example 488] |  | ≥ 10000 nM | 118 nM | 73.8 nM | 174 nM |  |  | ≥ 5000 nM |  |
| Cn1cnc2cc(Oc3ccc(Nc4ncnc5cnc(N6CC[C@@H]7COC[C@H]76)nc45)cc3Cl)ccc21 [Example 489] |  | 3370 nM | 16.4 nM | 17.7 nM | 9.7 nM |  |  | ≥ 5000 nM |  |
| Cc1cc(Nc2ncnc3cnc(N(C)CC(C)(C)O)nc23)c(F)cc1Oc1ccc2c(c1)ncn2C [Example 491] |  | ≥ 10000 nM | 78.6 nM | 27.8 nM | 36.9 nM |  |  | ≥ 5000 nM |  |
| Cn1cnc2cc(Oc3ccc(Nc4ncnc5cnc(N6C[C@@H]7C[C@H]6C[C@H]7O)nc45)cc3Cl)ccc21 [Example 492] |  | 4730 nM | 37.2 nM | 24.7 nM | 37.8 nM |  |  | ≥ 5000 nM |  |
